Source: ChEMBL document CHEMBL3826909, “Quinoxaline-based inhibitors of Ebola and Marburg VP40 egress” (Bioorg Med Chem Lett, 2016)
pIC50: −log10 of the molar value. The source made the active and inactive calls. No cut-off for these calls is given here.

How the values were obtained:
[1] = biological target: T1, Matrix protein VP40 (Lake Victoria marburgvirus (strain Ravn-87) (MARV) (Marburg virus (strainKenya/Ravn/1987))) (UniProt Q1PDC8); assay: Inhibition of Marburg virus VP40 PPxY L-domain motif expressed in HEK293T cells assessed as reduction in VLP budding at 1 uM relative to control; format: cell-based; conditions: HEK-293T
T1 sequence (whole entry): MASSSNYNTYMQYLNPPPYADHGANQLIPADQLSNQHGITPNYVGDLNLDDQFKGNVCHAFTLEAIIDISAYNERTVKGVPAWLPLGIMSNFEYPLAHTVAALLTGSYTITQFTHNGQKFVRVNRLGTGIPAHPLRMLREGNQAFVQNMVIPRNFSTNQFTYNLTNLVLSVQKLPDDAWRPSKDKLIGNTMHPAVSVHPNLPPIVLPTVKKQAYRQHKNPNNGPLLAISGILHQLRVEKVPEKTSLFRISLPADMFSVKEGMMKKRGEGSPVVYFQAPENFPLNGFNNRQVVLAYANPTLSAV

[2] = biological target: T1, Matrix protein VP40 (Lake Victoria marburgvirus (strain Ravn-87) (MARV) (Marburg virus (strainKenya/Ravn/1987))); assay: Inhibition of Marburg virus VP40 PPxY L-domain motif expressed in HEK293T cells assessed as reduction in VLP budding at 0.03 uM relative to control; format: cell-based; conditions: HEK-293T
[3] = biological target: T1, Matrix protein VP40 (Lake Victoria marburgvirus (strain Ravn-87) (MARV) (Marburg virus (strainKenya/Ravn/1987))); assay: Inhibition of Marburg virus VP40 PPxY L-domain motif expressed in HEK293T cells assessed as reduction in VLP budding at 0.1 uM relative to control; format: cell-based; conditions: HEK-293T
[4] = biological target: T1, Matrix protein VP40 (Lake Victoria marburgvirus (strain Ravn-87) (MARV) (Marburg virus (strainKenya/Ravn/1987))); assay: Inhibition of Marburg virus VP40 PPxY L-domain motif expressed in HEK293T cells assessed as reduction in VLP budding at 0.3 uM relative to control; format: cell-based; conditions: HEK-293T
[5] = tested on: Liver microsome; assay: Half life in human liver microsomes; format: ADME
[6] = biological target: T1, Matrix protein VP40 (Lake Victoria marburgvirus (strain Ravn-87) (MARV) (Marburg virus (strainKenya/Ravn/1987))); assay: Inhibition of Marburg virus VP40 PPxY L-domain motif expressed in HEK293T cells assessed as reduction in VLP budding at 1 uM after 24 hrs by Western blot analysis relative to control; format: cell-based; conditions: HEK-293T
[7] = tested on: Liver microsome; assay: Intrinsic clearance in human liver microsomes assessed per mg of protein; format: ADME
[8] = Cytotoxicity against human HEK293T cells assessed as cell viability at 10 uM after 24 hrs by MTT assay relative to control; format: cell-based, HEK-293T; conditions: read-out: Activity
[9] = Effect on cellular protein levels in human HEK293T cells infected with recombinant Vesicular stomatitis virus-M40 expressing Ebola virus VP40 PPxY L-domain motif at 30 to 100 nM after 8 hrs by Western blot analysis relative to control; format: ADME, cell-based; conditions: hek-293t, 0.1 µM
[10] = Cytotoxicity against human HEK293T cells assessed as cell viability at 0.01 uM after 24 hrs by MTT assay relative to control; format: cell-based, HEK-293T; conditions: read-out: Activity
[11] = biological target: T1, Matrix protein VP40 (Lake Victoria marburgvirus (strain Ravn-87) (MARV) (Marburg virus (strainKenya/Ravn/1987))); assay: Inhibition of Marburg virus VP40 PPxY L-domain motif-Nedd4 interaction in HEK293T cells coexpressing NYFP-Nedd4 and CYFP-mVP40 at 0.1 uM by inverted confocal microscopy based bimolecular complementation assay; format: cell-based; conditions: HEK-293T
[12] = biological target: Cytochrome P450 3A4 (Homo sapiens, UniProt P08684); assay: Inhibition of CYP3A4 (unknown origin) using midazolam as substrate; format: ADME
Cytochrome P450 3A4, sequence (P08684 whole entry): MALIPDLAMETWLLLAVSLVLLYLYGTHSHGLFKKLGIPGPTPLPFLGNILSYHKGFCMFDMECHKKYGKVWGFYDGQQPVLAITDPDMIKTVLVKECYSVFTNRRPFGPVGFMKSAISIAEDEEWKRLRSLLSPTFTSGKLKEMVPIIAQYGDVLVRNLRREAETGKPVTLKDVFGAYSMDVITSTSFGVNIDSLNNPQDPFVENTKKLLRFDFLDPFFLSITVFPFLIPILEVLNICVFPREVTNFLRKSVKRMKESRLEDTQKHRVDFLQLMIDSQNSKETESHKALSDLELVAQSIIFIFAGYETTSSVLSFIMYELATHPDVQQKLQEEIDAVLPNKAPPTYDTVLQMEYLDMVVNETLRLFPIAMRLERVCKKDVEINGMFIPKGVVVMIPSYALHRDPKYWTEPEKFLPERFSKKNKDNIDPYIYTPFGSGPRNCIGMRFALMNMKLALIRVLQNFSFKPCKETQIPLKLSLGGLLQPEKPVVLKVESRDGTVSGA

[13] = Cytotoxicity against African green monkey Vero E6 cells assessed as cell viability at 1 uM after 24 hrs by MTT assay relative to control; format: cell-based; conditions: chlorocebus sabaeus, read-out: Activity
[14] = Cytotoxicity against African green monkey Vero E6 cells assessed as cell viability at 0.01 uM after 24 hrs by MTT assay relative to control; format: cell-based; conditions: chlorocebus sabaeus, read-out: Activity
[15] = Half life in mouse liver microsomes; format: ADME
[16] = Cytotoxicity against African green monkey Vero E6 cells assessed as cell viability at 10 uM after 24 hrs by MTT assay relative to control; format: cell-based; conditions: chlorocebus sabaeus, read-out: Activity
[17] = Cytotoxicity against human HEK293T cells assessed as cell viability at 1 uM after 24 hrs by MTT assay relative to control; format: cell-based, HEK-293T; conditions: read-out: Activity
[18] = Cytotoxicity against African green monkey Vero E6 cells assessed as cell viability at 0.1 uM after 24 hrs by MTT assay relative to control; format: cell-based; conditions: chlorocebus sabaeus, read-out: Activity
[19] = tested on: Vesicular stomatitis virus; assay: Effect on viral protein levels in recombinant Vesicular stomatitis virus-M40 expressing Ebola virus VP40 PPxY L-domain motif infected in HEK293T cells at 30 to 100 nM after 8 hrs by Western blot analysis relative to control; format: ADME, organism-based; conditions: hek-293t, 0.1 µM
[20] = Cytotoxicity against human HEK293T cells assessed as cell viability at 0.1 uM after 24 hrs by MTT assay relative to control; format: cell-based, HEK-293T; conditions: read-out: Activity
[21] = biological target: T1, Matrix protein VP40 (Lake Victoria marburgvirus (strain Ravn-87) (MARV) (Marburg virus (strainKenya/Ravn/1987))); assay: Inhibition of Marburg virus VP40 PPxY L-domain motif expressed in HEK293T cells assessed as reduction in VLP budding at 10 uM relative to control; format: cell-based; conditions: HEK-293T
[22] = biological target: T1, Matrix protein VP40 (Lake Victoria marburgvirus (strain Ravn-87) (MARV) (Marburg virus (strainKenya/Ravn/1987))); assay: Inhibition of Marburg virus VP40 PPxY L-domain motif expressed in HEK293T cells assessed as reduction in VLP budding at 25 uM relative to control; format: cell-based; conditions: HEK-293T

| SMILES | inhibition [1] | inhibition [2] | inhibition [3] | inhibition [4] [%] | other results |
| --- | --- | --- | --- | --- | --- |
| Cc1nc2ccccc2nc1SCC(=O)NC(=O)Nc1cccc(C#N)c1 | 72% |  |  |  |  |
| Cc1nc2ccccc2nc1SCC(=O)N(C)C(=O)Nc1ccccc1F | inactive |  |  |  |  |
| Cc1nc2ccccc2nc1SCC(=O)NC(=O)Nc1cc(Cl)ccc1Cl |  | 37% |  |  |  |
| COc1cccc(NC(=O)NC(=O)CSc2nc3ccccc3nc2C)c1 | 100% | inactive | 60% | 98 |  |
| Cc1nc2ccccc2nc1SCC(=O)NC(=O)Nc1ccccc1C#N | 87% |  |  |  |  |
| O=C(CSc1nc2ccccc2nc1Cc1ccccc1)NC(=O)Nc1ccc(F)cc1 | inactive |  |  |  |  |
| Cc1nc2ccccc2nc1SCC(=O)NC(=O)Nc1cccc(Cl)c1 |  |  |  | 49 |  |
| Cc1nc2ccccc2nc1SCC(=O)NC(=O)Nc1ccccc1 | 88% |  |  |  | t1/2 [5]: 43.9 min; fold change (FC) [6]: 100; Intrinsic clearance [7]: 1.66 mL/min |
| Cc1nc2ccccc2nc1SCC(=O)NC(=O)Nc1cccnc1 | 78% |  | 44% |  |  |
| Cc1nc2ccccc2nc1SCC(=O)NC(=O)Nc1c(C)n[nH]c1C | 50% |  |  |  |  |
| Cc1nc2ccccc2nc1SCC(=O)NC(=O)NCc1cccs1 | 97% |  | inactive |  |  |
| COc1ccccc1NC(=O)NC(=O)CSc1nc2ccccc2nc1C | 96% | inactive | 60% | 89 |  |
| Cc1cccc(C)c1NC(=O)NC(=O)CSc1nc2ccccc2nc1C |  | inactive |  | 100 |  |
| Cc1nc2ccccc2nc1SCC(=O)NC(=O)Nc1cccc(F)c1C |  | 86% | 100% |  | viability at 24 h, 10 µM [8]: 63.5%; Activity [9]: Non-toxic; t1/2 [5]: > 90 min; viability at 24 h, 0.01 µM [10]: 95.1%; inhibition [11]: Active; pIC50 [12]: < 4.48; viability at 24 h, 1 µM [13]: 78.7%; viability at 24 h, 0.01 µM [14]: 102%; t1/2 [15]: 3.5 min; viability at 24 h, 10 µM [16]: 84%; viability at 24 h, 1 µM [17]: 60.1%; viability at 24 h, 0.1 µM [18]: 92.6%; Intrinsic clearance [7]: 0.54 mL/min; Activity [19]: Non-toxic; viability at 24 h, 0.1 µM [20]: 70.4% |
| Cc1ccccc1NC(=O)NC(=O)COc1nc2ccccc2nc1C | 100% |  | 58% | 100 |  |
| COc1ccc(NC(=O)NC(=O)CSc2nc3ccccc3nc2C)cc1 | 100% | 25% | 99% |  |  |
| Cc1nc2ccccc2nc1SCC(=O)NC(=O)NC1CC1 | inactive |  | inactive |  | inhibition [21]: 60% |
| Cc1ccc(NC(=O)NC(=O)CSc2nc3ccccc3nc2C)c(C)c1 |  | 62% |  | 100 |  |
| Cc1cccc(NC(=O)NC(=O)CSc2nc3ccccc3nc2C)c1C |  | 41% |  | 98 |  |
| Cc1cc(C)cc(NC(=O)NC(=O)CSc2nc3ccccc3nc2C)c1 |  | 44% |  | 100 |  |
| Cc1nc2ccccc2nc1SCC(=O)NC(=O)Nc1c(C)nn(-c2ccccc2)c1C | inactive |  |  |  |  |
| Cc1nc2ccccc2nc1SCC(=O)NC(=O)Nc1cccc(F)c1 | 41% |  |  |  |  |
| CCNC(=O)NC(=O)CSc1nc2ccccc2nc1C | inactive |  | inactive |  | inhibition [22]: 60% |
| Cc1nc2ccccc2nc1SCC(=O)NC(=O)Nc1c(C)nn(C)c1C | 64% |  |  |  |  |
| Cc1cccc(NC(=O)NC(=O)CSc2nc3ccccc3nc2C)c1 | 100% | inactive | inactive | 71 |  |
